Test results published in article PMC9259591, “Irigenin, a novel lead from Iris confusa for management of Helicobacter pylori infection with selective COX-2 and HpIMPDH inhibitory potential” (Scientific Reports, 2022).
Converted amounts (≈) assume the structure as drawn. “And” between values parts separate entries of the source, which are not always exact repeats. Equal values may be shown once. Read-outs that look alike come from different tables or passages of the source.

Columns and labels:
H. pylori ATCC 700392 = assay: anti-Helicobacter pylori activity, microwell dilution method with MTT; assay type: cell-based
Experimental: The anti-Helicobacter pylori activity of the PF and NPF as well as the isolated compounds was evaluated against H. pylori ATCC 700392 (type strain, obtained from the American Type Culture Collection unit (ATCC), using microwell dilution method and clarithromycin as standard drug[37]. The detailed procedures were described in the supplementary file.
The anti-Helicobacter pylori activity of the PF and NPF as well as the isolated compounds was evaluated against H. pylori ATCC 700392 (a type strain, obtained from the American Type Culture Collection unit (ATCC), using microwell dilution method and clarithromycin as standard drug ^1. The tested samples were prepared in dimethyl sulfoxide and successive ten twofold dilutions (125- 0.24 µg/mL) were carried out in a 96-well plate. Each microplate well included forty μL of Brain Heart Infusion growth medium and 10% fetal bovine serum (FBS), ten μL of inoculum and fifty μL of the tested sample. The plates were incubated for 3 days, in 5% oxygen, 10% carbon dioxide, 85 % nitrogen atmosphere at 37°C. Forty μL of 3- (4, 5-dimethyl-thiazol-2-yl)- 2,5-diphenyl-tetrazolium bromide (MTT) at a final concentration of 0.5 mg/mL freshly prepared in H2O was added to each well and incubated for 30 min. The bacteria were biologically active when change to purple color was observed ^1. While no change in MTT color indicated inhibition. Solvent control (DMSO) and the standard antibiotic (clarithromycin) were used as negative and positive controls, respectively. The H. pylori inhibition % was calculated using the given formula:
% Inhibition = Abs control – Abs sample × 100 /Abs control.

human recombinant COX-2 = biological target: T1, human recombinant COX-2 (Homo sapiens, UniProt P35354); assay: COX-2 inhibitory activity, colourimetric COX inhibitor screening assay kit; assay type: biochemical; conditions: for SI (COX-1/COX-2): selectivity index calculated as IC50 (COX-1)/(COX-2)
T1 construct: purchased
T1 sequence (P35354 18-604): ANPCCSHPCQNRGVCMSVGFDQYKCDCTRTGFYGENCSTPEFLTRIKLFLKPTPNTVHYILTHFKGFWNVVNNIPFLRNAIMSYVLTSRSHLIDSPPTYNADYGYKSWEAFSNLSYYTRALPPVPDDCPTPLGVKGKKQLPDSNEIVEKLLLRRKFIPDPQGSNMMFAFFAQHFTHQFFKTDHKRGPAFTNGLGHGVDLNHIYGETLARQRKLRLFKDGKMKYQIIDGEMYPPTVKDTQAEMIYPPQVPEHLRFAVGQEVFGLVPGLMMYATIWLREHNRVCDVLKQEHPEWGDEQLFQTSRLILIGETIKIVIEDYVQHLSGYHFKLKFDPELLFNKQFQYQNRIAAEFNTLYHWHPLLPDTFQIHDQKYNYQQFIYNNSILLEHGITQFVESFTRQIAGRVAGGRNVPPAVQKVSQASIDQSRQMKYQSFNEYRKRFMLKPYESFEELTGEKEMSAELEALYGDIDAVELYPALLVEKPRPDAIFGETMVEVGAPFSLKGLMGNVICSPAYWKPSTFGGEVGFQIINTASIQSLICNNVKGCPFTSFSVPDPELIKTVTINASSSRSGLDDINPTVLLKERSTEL
Experimental: (§1) The inhibitory COX activity was assayed colourimetrically by examining the inhibition of the ovine COX-1 and human recombinant COX-2 enzymes as described by George et al.[38], using a COX inhibitor screening assay kit. The detailed procedures were described in the supplementary file.
(§2) The inhibitory COX activity was assayed colourimetrically by examining the inhibition of the ovine COX-1 and human recombinant COX-2 enzymes as described by George et al. ^2, using a COX inhibitory screening assay kit. This assay determines the COX peroxidase activity by monitoring the appearance of N,N,N',N'-tetramethyl-p-phenylenediamine (TMPD). Assay buffer (150 μL 0.1 M Tris–HCl pH 8.0), 10 μL heme and 10μL enzyme (COX-1 or COX-2) were added in each well. Ten μL of each tested sample concentration was added to each well and incubated for 15 minutes at 37°C. After incubation, 20 μL of TMPD was added to each well. For initiating the reaction, 10 μL 10 mM arachidonic acid was added and the plates were further incubated for another 2 minutes at 37°C. For terminating the reaction, 50 μL 1 N HCl and saturated stannous chloride were added.
(§3) Reaction mixture containing assay buffer and heme acted as the blank and a mixture with either COX-1 or COX-2 assay buffer and heme acted as the 100% initial activity (IA). […] The absorbances of oxidized TMPD (blue colour) were read in ELISA plate reader at 590 nm. The % inhibition was calculated using the following formula:
(§4) COX % Inhibition= [(100%IA−Inhibitor)/ 100% IA x 100]. Where, IA: 100% initial activity.
(§5) The concentration at which the tested sample produces 50% inhibition of COX-1 and/or COX-2 (IC50) was determined. The selectivity index (SI) was calculated also as IC50 (COX-1)/ (COX-2).

ovine COX-1 = biological target: T2, ovine COX-1 (Ovis aries, UniProt P05979); assay: COX-1 inhibitory activity, colourimetric COX inhibitor screening assay kit; assay type: biochemical; conditions: ovine COX-1; ND = not detected
T2 construct: purchased
Experimental: as §1, §2, §3, §4, §5

[1] = concentration required for 100% inhibition; H. pylori ATCC 700392; ND = not detected

T2 sequence (P05979 25-600): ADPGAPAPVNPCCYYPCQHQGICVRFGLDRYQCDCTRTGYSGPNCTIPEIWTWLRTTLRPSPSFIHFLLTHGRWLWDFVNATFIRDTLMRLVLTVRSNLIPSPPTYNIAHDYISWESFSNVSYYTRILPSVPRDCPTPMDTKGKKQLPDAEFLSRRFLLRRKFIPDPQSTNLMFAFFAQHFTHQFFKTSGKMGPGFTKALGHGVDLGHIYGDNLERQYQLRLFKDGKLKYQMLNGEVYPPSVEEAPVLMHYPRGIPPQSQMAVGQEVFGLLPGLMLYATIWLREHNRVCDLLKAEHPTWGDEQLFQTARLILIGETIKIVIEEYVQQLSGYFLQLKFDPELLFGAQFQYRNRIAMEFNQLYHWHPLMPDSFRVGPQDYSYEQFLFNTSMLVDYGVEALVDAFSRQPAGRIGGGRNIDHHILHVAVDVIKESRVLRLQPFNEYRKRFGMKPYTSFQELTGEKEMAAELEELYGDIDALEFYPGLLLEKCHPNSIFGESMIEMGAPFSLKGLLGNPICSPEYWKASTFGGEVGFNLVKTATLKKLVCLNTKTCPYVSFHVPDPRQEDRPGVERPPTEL

MIC (H. pylori ATCC 700392; Helicobacter pylori, ATCC700392; read-out: MIC (H. pylori)) | MIC (H. pylori) (H. pylori ATCC 700392; concentration required for 100% inhibition; H. pylori ATCC 700392; ND = not detected; listed as tectoridine (P1)) | IC50 (COX-1) (ovine COX-1) | IC50 (COX-2) (human recombinant COX-2; human recombinant COX-2, ND = not detected) | SMILES | MIC (H. pylori ATCC 700392; Helicobacter pylori, ATCC700392, read-out: MIC (H. pylori)) | MIC (H. pylori) (H. pylori ATCC 700392; [1]) | MIC (H. pylori ATCC 700392; concentration required for 100% inhibition; H. pylori ATCC 700392; read-out: MIC (H. pylori)) [µM] | SI (COX-1/COX-2) (human recombinant COX-2)
 |  |  |  | O=c1cc(-c2ccc(O)c(O)c2)oc2c([C@@H]3O[C@H](CO)[C@@H](O)[C@H](O)[C@H]3O)c(O)cc(O)c12 [Orientin (P2), luteolin-8-C-β-glucopyranoside] | 15.5 µg/mL and 34.6 µM | 15.53 µg/mL (≈ 34.6 µM) | 34.64 (≈ 15.5 µg/mL) | 1.58
 |  |  |  | CC[C@H](/C=C/[C@@H](C)[C@H]1CC[C@H]2[C@@H]3CC=C4C[C@@H](O)CC[C@]4(C)[C@H]3CC[C@]12C)C(C)C [Stigmasterol (N2), stigmasterol] |  | no H. pylori inhibitory potential |  | 1.33
> 125 µg/mL and > 270 µM | no activity | no inhibition | no inhibition | COc1c(O[C@@H]2O[C@H](CO)[C@@H](O)[C@H](O)[C@H]2O)cc2occ(-c3ccc(O)cc3)c(=O)c2c1O [Tectoridin (P1), tectorigenin-7-O-β-D-glucoside] |  | > 125 µg/mL |  | 
